Source: article PMC7722354, “7-Substituted 2-Nitro-5,6-dihydroimidazo[2,1-b][1,3]oxazines: Novel Antitubercular Agents Lead to a New Preclinical Candidate for Visceral Leishmaniasis” (Journal of Medicinal Chemistry, 2017)
Values after ≈ are worked out from the molar mass of the structure shown.

Tests used:
[1] = system: M. tb, strain H37Rv; assay: LORA minimum inhibitory concentration assay (hypoxic); format: cell-based; details: Mycobacterium tuberculosis
[2] = system: M. tb, strain H37Rv; assay: MABA minimum inhibitory concentration assay (aerobic); format: cell-based, Mycobacterium tuberculosis
[3] = system: Leishmania donovani; assay: L. don amastigote mouse macrophage-based luciferase assay (CDRI); format: cell-based; details: in mouse macrophages, single test (CDRI)
[4] = system: human lung fibroblasts (MRC-5 cells); assay: cytotoxicity toward MRC-5 cells (LMPH); format: cell-based; details: MRC5
[5] = system: Leishmania infantum; assay: L. inf growth inhibition in mouse macrophages (LMPH); format: cell-based; details: Macrophage, mean of at least two determinations
[6] = system: Trypanosoma cruzi; assay: T. cruzi growth inhibition on MRC-5 cells (LMPH); format: cell-based; details: MRC5
[7] = Mycobacterium tuberculosis, H37RV, read-out: MIC MABA, aerobic
[8] = Mycobacterium tuberculosis, H37RV, aerobic, read-out: MIC MABA

SMILES | MIC [1] | MIC [2, 7] | IC50 [3] | IC50 [4] | IC50 [5] | IC50 [6] | MIC [2, 8] | MIC ([2]; aerobic, read-out: MIC MABA)
O=[N+]([O-])c1cn2c(n1)OC(CN1CCC(Oc3ccc(F)cc3)CC1)CC2 (centres unmarked) [compound 152] | 22 µM (≈ 8.28 µg/mL) | 2 µM (≈ 0.753 µg/mL) | 450 nM | – | – | – | – | –
CC1(COc2ccc(-c3ccc(OC(F)(F)F)cc3)cc2)CCn2cc([N+](=O)[O-])nc2O1 (centres unmarked) [compound 54] | 1.3 µM (≈ 0.584 µg/mL) | 0.11 µM (≈ 0.0494 µg/mL) | 520 nM | – | – | – | – | –
O=[N+]([O-])c1cn2c(n1)OC(COc1cnc(-c3ccc(F)cc3)cn1)CC2 (centres unmarked) [compound 126] | > 128 µM | – | 150 nM | > 64000 nM | 710 nM | 4700 nM | 0.15 µM (≈ 0.0557 µg/mL) | –
O=[N+]([O-])c1cn2c(n1)OC(COc1ccc(-c3ccc(F)nc3F)nc1)CC2 (centres unmarked) [compound 114] | 41 µM (≈ 16 µg/mL) | – | 80 nM | > 64000 nM | 52000 nM | 350 nM | 1.2 µM (≈ 0.467 µg/mL) | –
O=[N+]([O-])c1cn2c(n1)OC(COc1ccc(-c3ccc(F)cc3F)nc1)CC2 (centres unmarked) [compound 91] | 8.9 µM (≈ 3.46 µg/mL) | 0.36 µM (≈ 0.14 µg/mL) | 20 nM | – | – | – | – | –
O=[N+]([O-])c1cn2c(n1)OC(COc1cccc(-c3ccc(F)nc3)n1)CC2 (centres unmarked) [compound 117] | > 128 µM | > 128 µM | > 10000 nM | 35000 nM | 44000 nM | 130 nM | – | –
O=[N+]([O-])c1cn2c(n1)OC(COc1ccc(-c3ccc(C(F)(F)F)nc3)cn1)CC2 (centres unmarked) [compound 111] | 2.5 µM (≈ 1.05 µg/mL) | 0.09 µM (≈ 0.0379 µg/mL) | 130 nM | – | – | – | – | –
O=[N+]([O-])c1cn2c(n1)OC(COc1ccc(-c3ccc(C(F)(F)F)nc3)nc1)CC2 (centres unmarked) [compound 116] | 58 µM (≈ 24.4 µg/mL) | 0.12 µM (≈ 0.0506 µg/mL) | 70 nM | – | – | – | – | –
CC1(COCc2ccc(-c3ccc(OC(F)(F)F)cc3)cc2)CCn2cc([N+](=O)[O-])nc2O1 (centres unmarked) [compound 29] | 1.4 µM (≈ 0.649 µg/mL) | 0.093 µM (≈ 0.0431 µg/mL) | – | – | – | – | – | –
O=C(OCC1CCn2cc([N+](=O)[O-])nc2O1)N1CCN(c2ccc(F)cc2)CC1 (centres unmarked) [compound 160, (2-Nitro-6,7-dihydro-5H-imidazo[2,1-b][1,3]oxazin-7-yl)methyl 4-(4-fluorophenyl)-piperazine-1-carboxylate] | 22 µM (≈ 8.92 µg/mL) | – | > 100000 nM | > 64000 nM | > 64000 nM | 1500 nM | 2.5 µM (≈ 1.01 µg/mL) | –
O=[N+]([O-])c1cn2c(n1)OC(COc1ccc(-c3ccc(F)cc3)nn1)CC2 (centres unmarked) [compound 123] | 23 µM (≈ 8.54 µg/mL) | – | 70 nM | > 64000 nM | 8400 nM | 670 nM | 0.35 µM (≈ 0.13 µg/mL) | –
O=[N+]([O-])c1cn2c(n1)OC(COc1ccc(-c3ccc(F)cc3)cn1)CC2 (centres unmarked) [compound 59, 7-({[5-(4-Fluorophenyl)pyridin-2-yl]oxy}methyl)-2-nitro-6,7-dihydro-5H-imidazo[2,1-b][1,3]oxazine] | < 0.25 µM | 0.02 to 0.04 µM (≈ 0.00741 to 0.0148 µg/mL) | 10 nM | – | – | – | – | 0.025 µM (≈ 0.00926 µg/mL)
O=[N+]([O-])c1cn2c(n1)O[C@@H](COc1ccc(-c3ccc(OC(F)(F)F)cc3)nc1)CC2 [compound 94] | 1.5 µM (≈ 0.655 µg/mL) | 0.02 to 0.04 µM (≈ 0.00873 to 0.0175 µg/mL) | – | – | – | – | – | 0.024 µM (≈ 0.0105 µg/mL)
CC1(COCc2ccc(OCc3ccccc3)cc2)CCn2cc([N+](=O)[O-])nc2O1 (centres unmarked) [compound 23] | 1.4 µM (≈ 0.573 µg/mL) | – | 280 nM | – | – | – | 0.2 µM (≈ 0.0819 µg/mL) | –
CC1(COc2ccc(-c3ccc(F)cc3)cn2)CCn2cc([N+](=O)[O-])nc2O1 (centres unmarked) [compound 61] | 1 µM (≈ 0.384 µg/mL) | 0.17 µM (≈ 0.0653 µg/mL) | 90 nM | – | – | – | – | –
CC1(COC2CCN(c3ccc(F)cc3)CC2)CCn2cc([N+](=O)[O-])nc2O1 (centres unmarked) [compound 178] | 19 µM (≈ 7.42 µg/mL) | 0.37 µM (≈ 0.144 µg/mL) | – | – | – | – | – | –
CC1(COc2ncc(-c3ccc(F)nc3)cn2)CCn2cc([N+](=O)[O-])nc2O1 (centres unmarked) [compound 133] | 54 µM (≈ 20.9 µg/mL) | – | 1300 nM | > 64000 nM | 6100 nM | 2900 nM | 23 µM (≈ 8.89 µg/mL) | –
O=[N+]([O-])c1cn2c(n1)OC(COc1ccc(-c3ccc(F)nc3F)cn1)CC2 (centres unmarked) [compound 109] | 4.2 µM (≈ 1.64 µg/mL) | – | > 10000 nM | > 64000 nM | 190 nM | 290 nM | 0.25 µM (≈ 0.0973 µg/mL) | –
C[C@@]1(COCc2ccc(-c3ccc(OC(F)(F)F)cc3)cc2)CCn2cc([N+](=O)[O-])nc2O1 [compound 38] | 6.8 µM (≈ 3.15 µg/mL) | 0.74 µM (≈ 0.343 µg/mL) | – | – | – | – | – | –
O=[N+]([O-])c1cn2c(n1)OC(CN1CCC(c3ccc(F)cc3)CC1)CC2 (centres unmarked) [compound 147] | 11 µM (≈ 3.96 µg/mL) | – | 880 nM | > 64000 nM | 870 nM | 2900 nM | 2.1 µM (≈ 0.757 µg/mL) | –
CC1(COc2cccc(-c3ccc(F)cc3)n2)CCn2cc([N+](=O)[O-])nc2O1 (centres unmarked) [compound 101] | 5 µM (≈ 1.92 µg/mL) | – | – | > 64000 nM | 180 nM | 350 nM | 0.94 µM (≈ 0.361 µg/mL) | –
O=[N+]([O-])c1cn2c(n1)OC(COC1CCN(c3ccc(F)cc3)CC1)CC2 (centres unmarked) [compound 170] | 20 µM (≈ 7.53 µg/mL) | 0.78 µM (≈ 0.294 µg/mL) | – | – | – | – | – | –
